Entries after “also recorded” stand apart in the source; their conditions may differ. Read-outs that look alike come from different tables or passages of the source.

For data set [1], the system named is BDNF exon IV expression in cochlear neurons. Briefly: Salicylate-induced acute tinnitus: effect of test substance on BDNF/c-fos expression in cochlear neurons (RT-PCR). It is filed as in vivo, rat.
Data set [2] concerns Arc expression in auditory cortex. Put plainly: Salicylate-induced acute tinnitus: effect of test substance on gene expression in the auditory cortex (RT-PCR). It is filed as in vivo, rat. As to conditions: systemic 0.5 mg/kg, 2.5 hours after 350 mg/kg salicylate, n=12, p<0.05. Here is the method: Rnase H reverse transcriptase according to the Invitrogen protocol.
Two and half hours after the induction of acute tinnitus by injection of 350 mg/kg salicylate, the animals received systemic administration of midazolam (Dormicum, Roche, Grenzach-Wyhlen, Germany) (0.5 mg/kg of body weight), and gene expression was investigated after removal of organs with the aid of RT-PCR. […] Statistical analysis was carried out with Student's T test; *=p<0.05.
In a further experiment corresponding to the above, a GABA receptor agonist was administered, under conditions which were otherwise identical, not systemically but locally into the niche of the round window.

For data set [3] the following is noted: before and 20 hours after local salicylate, 5 μl, 70 mg/kg, n=5. An excerpt: Adult female Wistar rats weighing between 280 and 300 grams were used for the experiments. The treatment and handling of these animals took place in conformity with the institutional guidelines of Tübingen University, Tierforschungsanstalt.
(§1) The rats were anesthetized intraperitoneally by the method of Guitton, M. J. et al. (2003), Salicylate induces tinnitus through activation of cochlear NMDA receptors, J. Neurosci. 23, pages 3944 to 3952, in order to place a so-called gel foam (Gelita Tampon; B. Braun Medical, Melsungen, Germany) over the round window of both ears. The gel foam was impregnated as indicated with salicylate, which was diluted in artificial perilymph solution (70 mg/ml), or with the corresponding volume of artificial perilymph alone. The gel foam was in the niche of the round window as described; Guitton J. et al. (loc. cit.). The salicylate was locally administered thus for 20 hours. After this time, the animals were sacrificed and the cochlea and the auditory cortex were removed.
The anesthesia of the animals and the ABR screening was carried out as described previously; cf. Knipper, M. et al. (2000), loc. cit.; Schimmang, T. et al. (2003), Lack of BDNF and trkB signalling in the postnatal cochlea leads to a spatial reshaping of innervation along the tonotopic axis and hearing loss, Development 130, pages 4741 to 4750. […]

Data set [4] relates to c-fos, BDNF exon-III and BDNF exon IV transcripts in cochlear tissue. The procedure:
as §1

Data set [5] deals with c-fos, BDNF exon-III and BDNF exon IV in cochlear spiral ganglia. As to conditions: local 5 μl 70 mg/ml and systemic 350 mg/kg, versus artificial perilymph.
Description: Carbon dioxide was used for deep anesthesia of the animals, which were then decapitated. The cochleae were isolated and prepared as described previously; cf. […] Briefly, the cochleae were fixed by immersion in 2% paraformaldehyde, 125 mM sucrose in 100 mM phosphate-buffered saline (PBS), pH 7.4, for two hours and, following the fixation, decalcified in rapid bond decalcifier (#904687, Eurobio, Fisher-Scientific, 61130 Nidderau, Germany) for 45 minutes, subsequently followed by incubation in 25% sucrose, 1 mM protease inhibitor (Pefabloc, Roche) in Hanks buffered saline overnight. Following the overnight incubation, the cochleae were embedded in O.C.T. compound (Miles Laboratories, Elkhart, Ind., USA). The tissues were then cryosectioned with a thickness of 10 μm for the in situ hybridization, stored on SuperFrost*/plus slides and stored at −20° C. before use.
Genomic DNA from rat liver tissue was isolated using the Easy DNA kit from Invitrogen in accordance with the manufacturer's information. A polymerase chain reaction was carried out in order to amplify all four non-coding 5′ exons of the BDNF gene.
In the PCR reaction, the genomic DNA was first denatured at 94° C. for four minutes, followed by 30 cycles of one minute at 94° C., one minute at 55° C. and one minute at 72° C. The extension reaction was carried out at 70° C. for 10 minutes. […]
The subject of data set [6] is c-fos, BDNF exon-III, BDNF exon-IV and Arc in auditory cortex.
Description: Total RNA was isolated using the total RNeasy kit from Qiagen both from the cochlea and from brain tissue and was treated with DNase (Ambion) in order to remove DNA contaminants. The RNA was then purified and the concentration was determined by spectrometric measurements. Reverse transcription of the brain tissue was carried out in a reaction volume of 20 μl using 1 μg of total RNA as template and [sequence] II Rnase H reverse transcriptase according to the Invitrogen protocol. Because of the limited amount of RNA in the cochlear tissues, Qiagen Senscript reverse transcriptase was used, as described in the Qiagen protocol, using 50 ng of total RNA as template. The number of cycles and the annealing temperature for the PCR was optimized so that the signals obtained for BDNF, c-fos and glyceraldehyde-3-phosphate dehydrogenase (GAPDH) were not saturated.
The PCR was carried out in a final reaction volume of 25 μl, using both primers for GAPDH and the activity-dependent genes simultaneously. In this duplex PCR reaction, a housekeeping gene in the same PCR reaction represents an internal control, so that the intensity of the activity-dependent gene can be compared unambiguously with the control and the treated samples. PCR ready-to-go beads from Amersham Pharmacia were used in order to ensure a standardization of the PCR conditions and to reduce contamination during pipetting. Finally, the PCR products were analyzed in a 2% agarose gel which was visualized using an ethidium bromide stain and densitometric analysis using an Alpha Imager 2200 from Biometra. The intensity of the amplified activity-dependent gene was normalized for each reaction to the level of the coamplified GAPDH. The amplification conditions for arc, BDNF, c-fos and GAPDH were for the initial denaturation phase of 94° C. for three minutes, 30 cycles each of one minute of denaturation (94° C.), one minute of annealing (54° C.), 1.5 minutes of extension (72° C.) and a final extension phase of ten minutes at 72° C.
The auditory cortices investigated were obtained from animals in which the cochlea were investigated for the dose-dependent effect of salicylate, the mRNA was isolated and an RT-PCR was carried out as described under Material and Methods.
The mark [7] stands for this setting: increasing amounts of salicylate locally into round window niche, n=3.

With `COC(=O)C1=C(C)NC(C)=C(C(=O)OC(C)C)C1c1cccc2nonc12` (centres unmarked) [isradipine], in data set [1] (10 μl of 10 mM solution locally at round window 22 hours before tissue removal, salicylate 350 mg/kg systemic 3 hours before), the “salicylate-induced upregulation of BDNF (exon IV) in cochlear neurons” value was “inhibited”.

Take `Cc1ncc2n1-c1ccc(Cl)cc1C(c1ccccc1F)=NC2` [midazolam]: the “effect of salicylate on the expression of BDNF exon-IV in cochlear neurons” value in data set [1] (systemic 0.5 mg/kg, 2.5 hours after 350 mg/kg salicylate, n=7, p<0.05) is reported as “significant reduction; also recorded: significantly reduced; also recorded: inhibited”. Also, in data set [1] (systemic 0.5 mg/kg, 2.5 hours after 350 mg/kg salicylate, n=7 to 12), the “effect on salicylate-changed expression of c-fos” value is “remains incapable of being influenced”. For the same compound, the “effect of salicylate on the expression of Arc in the auditory cortex” value in data set [2] is listed as “significant reduction”.

As to `O=C(O)c1ccccc1O` [salicylate], the “frequency-specific ABR screening” value in data set [3] was “no loss of hearing”. In addition, in data set [4] (cochlea, n=8, p<0.05), the “increase in the expression of BDNF exon-IV (densitometric analysis)” value was 49±12% and the “increase in the expression of c-fos (densitometric analysis)” value is 69±11%. Also, in data set [4] (gel foam local, 5 μl, 70 mg/ml, found at 20 hours, not at three hours), the “c-fos expression in cochlear tissue” value is reported as “significant upregulation”. Moreover, the “expression of the BDNF exon-IV transcript in cochlear neurons” value in data set [4] (setting [7]) is on record as “increased”. Moreover, the “expression of BDNF exon-IV and c-fos in cochlear neurons” value in data set [4] (systemic 350 mg/kg salicylate) is on record as “elevated expression”. Also, the “c-fos expression in cochlear tissue” value in data set [4] (systemic i.p. 350 mg/kg of body weight, after three hours) is listed as “upregulation”. The “hybridization signals for c-fos, BDNF exon-III and BDNF exon IV in the middle basal cochlear turn” value in data set [5] was “significantly increased”. Moreover, in data set [6] (auditory cortex, n=8, p<0.05), the “decrease in the expression of BDNF exon-IV (densitometric analysis)” value turned out to be 49±12% and the “decrease in the expression of c-fos (densitometric analysis)” value was found to be 69±11%. Besides, the “expression of Arc in the auditory cortex” value in data set [6] (setting [7]) is given as “decreased”. The “expression of c-fos, BDNF exon-III and BDNF exon-IV in the auditory cortex” value in data set [6] (local administration, all dosages of salicylate) is “reduction”. The “expression of Arc in the primary auditory cortex” value in data set [6] (systemic 350 mg/kg salicylate) is “decrease”.
